# Values of other authors in patent US20180050107A1, “NEUROSTEROID COMPOSITIONS AND METHODS OF USE THEREOF” (Janssen Pharmaceutica NV, priority 2016, published 2018).
# Read-outs that look alike come from different tables or passages of the source. Where a SMILES comes first, the peptide text is derived from it.
# Columns and labels:
# TrkB receptors = target: T1, TrkB receptors (Mus musculus, UniProt P15209); conditions: mouse hippocampus
# T1 construct: its downstream PI3K/Akt and MAPK receptors in the mouse hippocampus; host or cells: mouse hippocampus
# [1] = ICU patients
# [2] = target: T2, rat cerebellar GABA delta subunits (Rattus norvegicus, UniProt P18506)
# T2 construct: rat cerebellar GABA delta subunits; host or cells: rat cerebellum
# [3] = not given; remark: listed apart in the source
# [4] = in vivo
# [5] = not given; remark: listed apart in the source
# [6] = gangliosides added to conventional liposomes
# MMP-9 = conditions: 0.1 μM
# [7] = system: MDA-MB-231 breast cancer cells; conditions: 0.1 μM
# β2-AR = β2-AR (Homo sapiens, UniProt P07550); conditions: 0.1 μM
# [8] = in vivo; remark: listed apart in the source
# GABA(A) delta [9] = target: T3, GABA(A) delta (Homo sapiens, UniProt O14764); conditions: 10 uMol/L, in vitro
# T3 sequence (O14764 25-452): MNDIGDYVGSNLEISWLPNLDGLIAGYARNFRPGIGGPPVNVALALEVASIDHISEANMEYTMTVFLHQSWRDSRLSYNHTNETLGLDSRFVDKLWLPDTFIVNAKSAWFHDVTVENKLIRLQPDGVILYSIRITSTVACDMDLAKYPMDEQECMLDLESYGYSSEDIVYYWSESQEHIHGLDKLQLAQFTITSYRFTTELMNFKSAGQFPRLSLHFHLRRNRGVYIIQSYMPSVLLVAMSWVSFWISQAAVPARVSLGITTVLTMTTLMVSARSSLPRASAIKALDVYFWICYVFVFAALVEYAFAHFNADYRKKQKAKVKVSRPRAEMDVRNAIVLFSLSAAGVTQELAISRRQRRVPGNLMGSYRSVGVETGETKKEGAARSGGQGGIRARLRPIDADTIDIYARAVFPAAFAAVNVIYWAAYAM
# neurons = conditions: read-out: EC50 for suppression of apoptosis in neurons
# lung cancer patients = conditions: combination with EGFR-TKI chemotherapy
# GABA(A) delta [10] = target: T3, GABA(A) delta; conditions: 1 μMol/L
# [11] = in vivo; remark: listed apart in the source
# [12] = oral administration, healthy volunteers
# GABA(A) delta [13] = target: T3, GABA(A) delta; conditions: 100 uM
# [14] = in vivo; remark: listed apart in the source
# [15] = in vivo; remark: listed apart in the source
# [16] = not given; remark: listed apart in the source
# PPAR-gamma receptors = target: T4, PPAR-gamma receptors (Homo sapiens, UniProt P37231); conditions: read-out: EC for activation of PPAR-gamma receptors
# T4 sequence (P37231 1-505): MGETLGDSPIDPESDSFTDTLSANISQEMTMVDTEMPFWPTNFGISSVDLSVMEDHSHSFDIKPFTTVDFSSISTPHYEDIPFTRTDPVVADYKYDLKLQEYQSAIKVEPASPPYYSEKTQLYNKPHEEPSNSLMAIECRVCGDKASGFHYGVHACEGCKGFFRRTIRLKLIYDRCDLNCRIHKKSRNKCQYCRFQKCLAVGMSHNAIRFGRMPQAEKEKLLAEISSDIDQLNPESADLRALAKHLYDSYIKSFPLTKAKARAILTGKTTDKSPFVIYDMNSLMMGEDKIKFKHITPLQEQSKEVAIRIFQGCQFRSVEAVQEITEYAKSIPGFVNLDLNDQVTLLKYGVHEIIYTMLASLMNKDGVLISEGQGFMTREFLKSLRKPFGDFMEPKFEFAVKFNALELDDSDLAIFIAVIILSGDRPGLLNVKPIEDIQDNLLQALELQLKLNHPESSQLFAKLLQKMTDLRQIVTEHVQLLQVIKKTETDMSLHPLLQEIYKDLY
# Chain of β2-AR (P07550 whole entry): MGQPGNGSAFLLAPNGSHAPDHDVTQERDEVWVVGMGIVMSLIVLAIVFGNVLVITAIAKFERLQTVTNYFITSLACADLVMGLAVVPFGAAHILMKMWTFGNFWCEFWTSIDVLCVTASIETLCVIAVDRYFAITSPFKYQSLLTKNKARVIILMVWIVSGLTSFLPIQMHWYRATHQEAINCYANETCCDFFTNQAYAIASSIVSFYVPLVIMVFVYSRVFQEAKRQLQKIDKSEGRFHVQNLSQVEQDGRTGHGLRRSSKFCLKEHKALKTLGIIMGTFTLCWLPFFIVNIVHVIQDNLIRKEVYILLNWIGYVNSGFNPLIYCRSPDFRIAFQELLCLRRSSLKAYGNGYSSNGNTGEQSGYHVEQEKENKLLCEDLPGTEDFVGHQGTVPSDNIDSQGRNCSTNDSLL
# T1 sequence (P15209 32-821): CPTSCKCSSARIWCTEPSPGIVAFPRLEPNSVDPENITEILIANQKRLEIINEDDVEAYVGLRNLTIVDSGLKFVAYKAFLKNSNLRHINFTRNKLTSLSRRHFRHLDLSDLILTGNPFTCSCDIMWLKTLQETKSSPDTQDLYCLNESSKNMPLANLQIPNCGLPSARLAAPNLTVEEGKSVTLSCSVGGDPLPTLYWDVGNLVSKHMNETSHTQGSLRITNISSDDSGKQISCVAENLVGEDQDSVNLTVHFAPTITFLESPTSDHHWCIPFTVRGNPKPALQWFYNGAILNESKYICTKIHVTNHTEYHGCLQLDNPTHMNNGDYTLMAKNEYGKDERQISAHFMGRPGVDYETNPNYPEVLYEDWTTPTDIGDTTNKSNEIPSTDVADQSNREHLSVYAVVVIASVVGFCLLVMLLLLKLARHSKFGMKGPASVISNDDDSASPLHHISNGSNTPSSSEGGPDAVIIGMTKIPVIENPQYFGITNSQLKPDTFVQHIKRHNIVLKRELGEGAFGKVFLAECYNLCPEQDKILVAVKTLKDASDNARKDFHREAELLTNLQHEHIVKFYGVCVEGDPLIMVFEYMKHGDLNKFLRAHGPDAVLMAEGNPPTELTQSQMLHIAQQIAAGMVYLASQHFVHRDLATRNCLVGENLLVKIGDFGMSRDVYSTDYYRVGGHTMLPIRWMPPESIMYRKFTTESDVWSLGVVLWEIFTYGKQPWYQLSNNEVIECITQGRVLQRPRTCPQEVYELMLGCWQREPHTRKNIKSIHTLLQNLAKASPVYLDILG
# T2 sequence (P18506 17-449 limits assumed): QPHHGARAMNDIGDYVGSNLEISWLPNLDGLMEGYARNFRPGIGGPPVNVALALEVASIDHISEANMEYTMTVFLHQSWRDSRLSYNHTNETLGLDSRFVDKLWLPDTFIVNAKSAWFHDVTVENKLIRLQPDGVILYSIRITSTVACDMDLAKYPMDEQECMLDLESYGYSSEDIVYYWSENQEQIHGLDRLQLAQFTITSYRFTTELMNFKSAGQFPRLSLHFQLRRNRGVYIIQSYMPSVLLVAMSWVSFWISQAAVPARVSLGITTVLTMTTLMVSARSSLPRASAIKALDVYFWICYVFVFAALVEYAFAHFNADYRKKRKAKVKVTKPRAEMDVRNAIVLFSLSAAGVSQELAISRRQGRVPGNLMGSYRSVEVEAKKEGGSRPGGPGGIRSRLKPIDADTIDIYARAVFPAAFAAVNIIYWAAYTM
# T2 sequence (P30191 20-453 partner): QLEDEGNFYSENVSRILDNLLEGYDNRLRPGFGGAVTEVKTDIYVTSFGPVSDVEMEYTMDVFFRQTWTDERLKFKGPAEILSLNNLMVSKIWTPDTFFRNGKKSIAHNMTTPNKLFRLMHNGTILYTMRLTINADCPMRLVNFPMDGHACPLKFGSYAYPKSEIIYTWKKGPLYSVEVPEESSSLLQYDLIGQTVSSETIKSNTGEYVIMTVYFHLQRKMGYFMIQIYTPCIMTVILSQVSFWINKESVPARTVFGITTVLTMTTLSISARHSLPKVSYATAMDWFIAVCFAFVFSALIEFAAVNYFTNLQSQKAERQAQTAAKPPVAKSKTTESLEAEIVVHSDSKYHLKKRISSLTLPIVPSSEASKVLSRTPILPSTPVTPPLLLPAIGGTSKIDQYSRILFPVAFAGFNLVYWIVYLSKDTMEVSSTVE
molecule,measurement,setting,value
"O=c1cc(-c2ccccc2)oc2c(O)c(O)ccc12 [7,8-DHF, 7,8 dihydroxyflavone]",concentration activating TrkB receptors,TrkB receptors,250 nM
"C[C@H](N)C(=O)N[C@@H](CCC(N)=O)C(=O)O [AG, Alanyl-Glutamine] (H-Ala-Gln-OH)",plasma half-life,[1],15.6 min
same,log P,,−2.15
"CC(=O)[C@H]1CC[C@H]2[C@@H]3CC[C@H]4C[C@H](O)CC[C@]4(C)[C@H]3CC[C@]12C [Allopregnanolone, 3α-hydroxy-5α-pregnan-20-one]",concentration range potentiating rat cerebellar GABA delta subunits,[2],nanomolar range
NCCC(=O)N[C@@H](Cc1cnc[nH]1)C(=O)O [Carnosine],half-life in human plasma,[3],< 5 min
same,log P,,−1.19
O=C1N[C@@H](Cc2cnc[nH]2)C(=O)N2CCC[C@@H]12 [Cyclo His-Pro],log P,,−1.48
same,"biphasic half-life, first phase",[4],1 min
same,"biphasic half-life, second phase",[4],33 min
Nc1ccn([C@@H]2O[C@H](CO)[C@@H](O)[C@@H]2O)c(=O)n1 [Cytarabine],half-life in plasma,[5]; continuous infusion,126 min
same,half-life,[5]; intravenously delivered,7 to 107 min
same,half-life,[5]; subcutaneously delivered,18 min
"O=C[C@H](O)[C@@H](O)[C@H](O)[C@H](O)COP(=O)(O)O [Example G6P, glucose-6-phosphate]",log P,,−3.24
same,flux from the liposome into plasma,[6],about 5 % per hour
"O=C(O)[C@H]1O[C@@H](Oc2c(-c3ccc(O)c(O)c3)oc3cc(O)cc(O)c3c2=O)[C@H](O)[C@@H](O)[C@@H]1O [Example Q3G, quercetin-3-O-glucuronide]",MMP-9 induction,MMP-9,suppressed
same,invasion of MDA-MB-231 breast cancer cells,[7],suppressed invasion
same,binding of [(3)H]-NA to β2-AR,β2-AR,inhibited the binding
same,log P,,2.10
same,plasma elimination half-life,[8],140 min
"N[C@@H](CCC(=O)NCCS(=O)(=O)O)C(=O)O [GGT, Gamma-Glutamyltaurine]",log P,,−3.36
C=CCc1ccc(O)c(-c2ccc(O)c(CC=C)c2)c1 [Honokiol],increase of GABA current,GABA(A) delta [9],about 900%
O=C1C[C@@H](c2ccccc2)Oc2cc(O)cc(O)c21 [Pinocembrin],EC50,neurons,0.1 µM
"CC(C)=CCC[C@](C)(O)[C@H]1CC[C@]2(C)[C@@H]1[C@H](O)C[C@@H]1[C@@]3(C)CC[C@H](O[C@@H]4O[C@H](CO)[C@@H](O)[C@H](O)[C@H]4O[C@@H]4O[C@H](CO)[C@@H](O)[C@H](O)[C@H]4O)C(C)(C)[C@@H]3CC[C@]12C [Rg3, ginsenoside Rg3]",increase in the duration of progression free survival,lung cancer patients,20%
"C[C@]12CC[C@@H](O)C[C@H]1CC[C@@H]1[C@@H]2CC[C@]2(C)[C@@H](C(=O)CO)CC[C@@H]12 [THDOC, tetrahydrodeoxycorticosterone]",increase of GABA current,GABA(A) delta [10],at least 700%
NC(=O)[C@@H]1CCCN1C(=O)[C@H](Cc1cnc[nH]1)NC(=O)[C@@H]1CCC(=O)N1 [TRH],half-life,[11],7.6 min
NCCS(=O)(=O)O [Taurine],log P,,−3.36
same,half-life,[12],60 min
O=C(O)[C@H]1O[C@@H](Oc2cc3oc(-c4ccccc4)cc(=O)c3c(O)c2O)[C@H](O)[C@@H](O)[C@@H]1O [baicalin],log P,,1.27
COc1ccc([C@@H]2CC(=O)c3c(O)cc(O)cc3O2)cc1O [hesperetin],log P,,2.90
O=c1c(O[C@@H]2O[C@H](CO)[C@H](O)[C@H](O)[C@H]2O)c(-c2ccc(O)c(O)c2)oc2cc(O)cc(O)c12 [hyperoside],log P,,1.75
CC1(C)C2CC=C(CO)C1C2 (centres unmarked) [myrtenol],GABA(A) delta agonism,GABA(A) delta [13],GABA(A) delta agonist
CC[C@H](C)[C@@H]1NC(=O)[C@H](Cc2ccc(O)cc2)NC(=O)[C@@H](N)CSSC[C@@H](C(=O)N2CCC[C@H]2C(=O)N[C@@H](CC(C)C)C(=O)NCC(N)=O)NC(=O)[C@H](CC(N)=O)NC(=O)[C@H](CCC(N)=O)NC1=O [oxytocin],crossing of the blood brain barrier,[14],failure to cross the blood brain barrier
same,half-life,[15],~6.8 min
O=C(O)[C@H]1O[C@@H](Oc2cc3oc(-c4ccc(O)cc4)cc(=O)c3c(O)c2O)[C@H](O)[C@@H](O)[C@@H]1O [scutellarin],bioavailability,[16]; oral,less than 3%
same,factor of decrease of plasma concentration,[16]; over about an hour,about 10
CC1=CC(O)C2CC1C2(C)C (centres unmarked) [verbenol],GABA(A) delta agonism,GABA(A) delta [13],GABA(A) delta agonist
hesperetin glucuronide,EC50,PPAR-gamma receptors,~100 µM
same,log P,,0.12
